Reference: PubChem BioAssay AID256 (DTP/NCI, 2004)
Where “and” joins values, the source holds several entries; their conditions need not be identical. Equal values may be shown once. Inconclusive results and toxic doses are left out.

Tested on: CD2F1 mice, L1210 leukemia ip, survival T/C
Assay: NCI In Vivo Anticancer Drug Screen. Data for tumor model L1210 Leukemia (intraperitoneal) in CD2F1 (CDF1) mice
Conditions: higher = longer survival
Procedure, shortened: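 In this screen, transplantable tumors were grown in mice given either the compound or its vehicle. Results were expressed as the treated measurement relative to the control measurement.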

[1] = endpoint: mean survival time, dose: 12.5 mg/kg/injection, schedule: Q01DX009 (ip), vehicle: Klucel (hydroxypropylcellulose) (HPC)
[2] = endpoint: mean survival time, dose: 25.0 mg/kg/injection, schedule: Q01DX009 (ip), vehicle: Klucel (hydroxypropylcellulose) (HPC)
[3] = endpoint: mean survival time, dose: 100.0 mg/kg/injection, schedule: Q01DX009 (ip), vehicle: saline with Tween-80
[4] = endpoint: mean survival time, dose: 200.0 mg/kg/injection, schedule: Q01DX009 (ip), vehicle: saline with Tween-80
[5] = endpoint: mean survival time, dose: 400.0 mg/kg/injection, schedule: Q01DX009 (ip), vehicle: saline with Tween-80
[6] = endpoint: mean survival time, dose: 100.0 mg/kg/injection, schedule: Q04DX002 (ip), vehicle: saline with Tween-80
[7] = endpoint: mean survival time, dose: 200.0 mg/kg/injection, schedule: Q04DX002 (ip), vehicle: saline with Tween-80
[8] = endpoint: mean survival time, dose: 400.0 mg/kg/injection, schedule: Q04DX002 (ip), vehicle: saline with Tween-80
[9] = endpoint: mean survival time, dose: 100.0 mg/kg/injection, schedule: Q04DX003 (ip), vehicle: saline with Tween-80
[10] = endpoint: mean survival time, dose: 200.0 mg/kg/injection, schedule: Q04DX003 (ip), vehicle: saline with Tween-80
[11] = endpoint: mean survival time, dose: 400.0 mg/kg/injection, schedule: Q04DX003 (ip), vehicle: saline with Tween-80

`ClCCN(CCCl)c1ccc(CCN2CCCCC2)cc1` was tested, and the T/C (endpoint: mean survival time, dose: 3.12 mg/kg/injection, schedule: Q01DX009 (ip), vehicle: Klucel (hydroxypropylcellulose) (HPC)) was 106 % of control, the T/C (endpoint: mean survival time, dose: 6.25 mg/kg/injection, schedule: Q01DX009 (ip), vehicle: Klucel (hydroxypropylcellulose) (HPC)) was 106 % of control and the T/C [1] was 121 % of control and 108 % of control. The T/C [2] was 118 % of control.

For `COC(=O)c1cc(NS(=O)(=O)c2ccc(N)c([N+](=O)[O-])c2)cc(C(=O)OC)c1`, the T/C [3] was 98 % of control, the T/C [4] was 95 % of control and the T/C [5] was 96 % of control.

For `c1ccc(CNc2nnnn2C2CCCCC2)cc1`, the T/C (endpoint: mean survival time, dose: 25.0 mg/kg/injection, schedule: Q04DX002 (ip), vehicle: saline with Tween-80) was 95 % of control, the T/C (endpoint: mean survival time, dose: 50.0 mg/kg/injection, schedule: Q04DX002 (ip), vehicle: saline with Tween-80) was 91 % of control and the T/C [6] was 102 % of control.

With `COc1ccc(COC(=O)Nc2ccc(Cl)cc2)cc1OC` the T/C [6] was 96 % of control, the T/C [7] was 100 % of control and the T/C [8] was 112 % of control.

For `Cc1c(C(=O)c2no[n+]([O-])c2C(=O)c2c(C)c([N+](=O)[O-])c(C)c([N+](=O)[O-])c2C)c(C)c([N+](=O)[O-])c(C)c1[N+](=O)[O-]`, the T/C [3] was 87 % of control, the T/C [9] was 102 % of control and the T/C [4] was 96 % of control. For the same compound, the T/C [10] was 88 % of control, the T/C [5] was 88 % of control and the T/C [11] was 98 % of control.

With `CNC(=O)OCC1C2=C(C(=O)C(C)=C(N)C2=O)N2CC3C(N3C)C12OC` (centres undefined) the T/C (endpoint: mean survival time, dose: 75.0 mg/kg/injection, schedule: Q01DX001 (ip), vehicle: carboxymethylcellulose (CMC)) was 113 % of control and the T/C (endpoint: mean survival time, dose: 150.0 mg/kg/injection, schedule: Q01DX001 (ip), vehicle: carboxymethylcellulose (CMC)) was 113 % of control.

For `CC(=O)CCC(=O)OC1CCCCC1`, the T/C [9] was 102 % of control, the T/C [10] was 97 % of control and the T/C [11] was 97 % of control.

For `c1ccc2nc3c(cc2c1)CCC3`, the T/C (endpoint: mean survival time, dose: 100.0 mg/kg/injection, schedule: Q04DX003 (ip), vehicle: saline + alcohol) was 95 % of control and the T/C (endpoint: mean survival time, dose: 200.0 mg/kg/injection, schedule: Q04DX003 (ip), vehicle: saline + alcohol) was 95 % of control.

In the case of `C/C(CCc1cnc2ccccc2c1)=N/NC(N)=O`, the T/C [6] is reported as 96 % of control, the T/C [7] is reported as 88 % of control and the T/C [8] is reported as 103 % of control.

`[Cl][Pt+2][Cl].[NH-]C1CCC1[NH-]` (centres undefined) was tested, and the T/C (endpoint: median survival time, dose: 2.5 mg/kg/injection, schedule: Q04DX003 (ip), vehicle: Klucel (hydroxypropylcellulose) (HPC)) was 111 % of control, the T/C (endpoint: median survival time, dose: 10.0 mg/kg/injection, schedule: Q04DX003 (ip), vehicle: Klucel (hydroxypropylcellulose) (HPC)) was 156 % of control and 158 % of control and the T/C (endpoint: median survival time, dose: 20.0 mg/kg/injection, schedule: Q04DX003 (ip), vehicle: Klucel (hydroxypropylcellulose) (HPC)) was 177 % of control.

`CC(C)(O)C#CC(C)(C)OC(O)C(Cl)(Cl)Cl` (centres undefined) was tested, and the T/C [6] was 96 % of control, the T/C [7] was 101 % of control and the T/C [8] was 93 % of control.

With `CC12CC(C(=O)O)C3(O)CC(C)(C1)CC(C)(C2)C3` (centres undefined) (tested in a mixture with another compound) the T/C [1] was 95 % of control and 107 % of control, the T/C [2] was 101 % of control and 109 % of control and the T/C (endpoint: mean survival time, dose: 50.0 mg/kg/injection, schedule: Q01DX009 (ip), vehicle: Klucel (hydroxypropylcellulose) (HPC)) was 87 % of control and 107 % of control. For the same compound, the T/C (endpoint: mean survival time, dose: 100.0 mg/kg/injection, schedule: Q01DX009 (ip), vehicle: Klucel (hydroxypropylcellulose) (HPC)) was 98 % of control and 110 % of control, the T/C (endpoint: mean survival time, dose: 200.0 mg/kg/injection, schedule: Q01DX009 (ip), vehicle: Klucel (hydroxypropylcellulose) (HPC)) was 101 % of control and 104 % of control and the T/C (endpoint: mean survival time, dose: 400.0 mg/kg/injection, schedule: Q01DX009 (ip), vehicle: Klucel (hydroxypropylcellulose) (HPC)) was 98 % of control.

For `O=P(OCCCl)(OCCCl)C(Cl)Cl`, the T/C (endpoint: mean survival time, dose: 100.0 mg/kg/injection, schedule: Q01DX001 (ip), vehicle: saline) was 96 % of control, the T/C (endpoint: mean survival time, dose: 200.0 mg/kg/injection, schedule: Q01DX001 (ip), vehicle: saline) was 100 % of control and the T/C (endpoint: mean survival time, dose: 400.0 mg/kg/injection, schedule: Q01DX001 (ip), vehicle: saline) was 97 % of control.
